Reference: patent US4472304A, “(Amido)N-substituted bleomycins, salts thereof and process for preparation thereof” (Nippon Kayaku Kabushiki Kaisha, priority 1981, dated 1984)

Tests used:
[1] = system: Mycobacterium smegmatis ATCC 607; test: Antimicrobial activity against Mycobacterium smegmatis ATCC 607 (agar plate-cylinder); format: cell-based; details: standard bleomycin A2 (copper-free) assumed 1,000 mcg potency/mg
Description: (§1) 2. ANT[…] MYC[…] ATCC 607 AND BACILLUS SUBTILIS
(§2) The antimicrobial activity was tested against the captioned test organisms by the method of agar plate-cylinder. The activity was recorded on the assumption that the activity of standard sample of bleomycin A2 (copper-free form) is 1,000 mcg poteney/mg.

Bacillus subtilis = test: Antimicrobial activity against Bacillus subtilis (agar plate-cylinder); format: cell-based; details: standard bleomycin A2 (copper-free) assumed 1,000 mcg potency/mg
Description: as §1, §2

## Cc1c(N)nc(C(CC(N)=O)NCC(N)C(=O)NCc2ccc(Cl)cc2)nc1C(=O)NC(C(=O)NC(C)C(O)C(C)C(=O)NC(C(=O)NCCc1nc(-c2nc(C(=O)NCCCNC(C)c3ccccc3)cs2)cs1)C(C)O)C(OC1OC(CO)C(O)C(O)C1OC1OC(CO)C(O)C(OC(N)=O)C1O)c1cnc[nH]1 [Compound 24, 3-((S)-1'-phenylethyl)aminopropylamino-(amido)N--[p-chlorobenzyl]-BLM]
[1]
  Antimicrobial potency of Cu-free compound against Mycobacterium smegmatis ATCC 607: 56328 mcg potency/mg
Bacillus subtilis
  Antimicrobial potency of Cu-free compound against Bacillus subtilis: 1184 mcg potency/mg

## CCCCCCCCCCCCCCCCCCNC(=O)C(N)CNC(CC(N)=O)c1nc(N)c(C)c(C(=O)NC(C(=O)NC(C)C(O)C(C)C(=O)NC(C(=O)NCCc2nc(-c3nc(C(=O)NCCCNC(C)c4ccccc4)cs3)cs2)C(C)O)C(OC2OC(CO)C(O)C(O)C2OC2OC(CO)C(O)C(OC(N)=O)C2O)c2cnc[nH]2)n1 [Compound 25, 3-((S)-1'-phenylethylamino)propylamino-(amido)N--[stearyl]-BLM]
[1]
  Antimicrobial potency of Cu-free compound against Mycobacterium smegmatis ATCC 607: 210 mcg potency/mg
Bacillus subtilis
  Antimicrobial potency of Cu-free compound against Bacillus subtilis: 0 mcg potency/mg

## CCCCCCCCCCCCNC(=O)C(N)CNC(CC(N)=O)c1nc(N)c(C)c(C(=O)NC(C(=O)NC(C)C(O)C(C)C(=O)NC(C(=O)NCCc2nc(-c3nc(C(=O)NCCCNC(C)c4ccccc4)cs3)cs2)C(C)O)C(OC2OC(CO)C(O)C(O)C2OC2OC(CO)C(O)C(OC(N)=O)C2O)c2cnc[nH]2)n1 [Compound 26, 3-((S)-1'-phenylethylamino)propylamino-(amido)N--[lauryl]-BLM]
[1]
  Antimicrobial potency of Cu-free compound against Mycobacterium smegmatis ATCC 607: 3920 mcg potency/mg
Bacillus subtilis
  Antimicrobial potency of Cu-free compound against Bacillus subtilis: 384 mcg potency/mg

## CCCCCCCCNC(=O)C(N)CNC(CC(N)=O)c1nc(N)c(C)c(C(=O)NC(C(=O)NC(C)C(O)C(C)C(=O)NC(C(=O)NCCc2nc(-c3nc(C(=O)NCCCNC(C)c4ccccc4)cs3)cs2)C(C)O)C(OC2OC(CO)C(O)C(O)C2OC2OC(CO)C(O)C(OC(N)=O)C2O)c2cnc[nH]2)n1 [Compound 27, 3-((S)-1'-phenylethylamino)propylamino-(amido)N--[octyl]-BLM]
[1]
  Antimicrobial potency of Cu-free compound against Mycobacterium smegmatis ATCC 607: 45100 mcg potency/mg
Bacillus subtilis
  Antimicrobial potency of Cu-free compound against Bacillus subtilis: 886 mcg potency/mg

## COc1ccc2[nH]cc(CCNC(=O)C(N)CNC(CC(N)=O)c3nc(N)c(C)c(C(=O)NC(C(=O)NC(C)C(O)C(C)C(=O)NC(C(=O)NCCc4nc(-c5nc(C(=O)NCCCNC(C)c6ccccc6)cs5)cs4)C(C)O)C(OC4OC(CO)C(O)C(O)C4OC4OC(CO)C(O)C(OC(N)=O)C4O)c4cnc[nH]4)n3)c2c1 [Compound 28, 3-((S)-1'-phenylethylamino)propylamino-(amido)N--[5-methyoxyindol-3-ylethyl]-BLM]
[1]
  Antimicrobial potency of Cu-free compound against Mycobacterium smegmatis ATCC 607: 18650 mcg potency/mg
Bacillus subtilis
  Antimicrobial potency of Cu-free compound against Bacillus subtilis: 586 mcg potency/mg

## Cc1c(N)nc(C(CC(N)=O)NCC(N)C(=O)NCCCCCCCCCCCCN)nc1C(=O)NC(C(=O)NC(C)C(O)C(C)C(=O)NC(C(=O)NCCc1nc(-c2nc(C(=O)NCCCNC(C)c3ccccc3)cs2)cs1)C(C)O)C(OC1OC(CO)C(O)C(O)C1OC1OC(CO)C(O)C(OC(N)=O)C1O)c1cnc[nH]1 [Compound 29, 3-((S)-1'-phenylethylamino)propylamino-(amido)N--[do-decanyl]-BLM]
[1]
  Antimicrobial potency of Cu-free compound against Mycobacterium smegmatis ATCC 607: 14200 mcg potency/mg
Bacillus subtilis
  Antimicrobial potency of Cu-free compound against Bacillus subtilis: 5400 mcg potency/mg

## Cc1c(N)nc(C(CC(N)=O)NCC(N)C(=O)NC(Cc2ccccc2)c2ccccc2)nc1C(=O)NC(C(=O)NC(C)C(O)C(C)C(=O)NC(C(=O)NCCc1nc(-c2nc(C(=O)NCCCNC(C)c3ccccc3)cs2)cs1)C(C)O)C(OC1OC(CO)C(O)C(O)C1OC1OC(CO)C(O)C(OC(N)=O)C1O)c1cnc[nH]1 [Compound 30, 3-((S)-1'-phenylethylamino)propylamino-(amido)N--[1',2'-diphenyl-ethyl]-BLM]
[1]
  Antimicrobial potency of Cu-free compound against Mycobacterium smegmatis ATCC 607: 33802 mcg potency/mg
Bacillus subtilis
  Antimicrobial potency of Cu-free compound against Bacillus subtilis: 190 mcg potency/mg

## Cc1c(N)nc(C(CC(N)=O)NCC(N)C(=O)NC(c2ccccc2)c2ccccc2)nc1C(=O)NC(C(=O)NC(C)C(O)C(C)C(=O)NC(C(=O)NCCc1nc(-c2nc(C(=O)NCCCNC(C)c3ccccc3)cs2)cs1)C(C)O)C(OC1OC(CO)C(O)C(O)C1OC1OC(CO)C(O)C(OC(N)=O)C1O)c1cnc[nH]1 [Compound 31, 3-((S)-1'-phenylethylamino)propylamino-(amido)N--[diphenylmethyl]-BLM]
[1]
  Antimicrobial potency of Cu-free compound against Mycobacterium smegmatis ATCC 607: 54645 mcg potency/mg
Bacillus subtilis
  Antimicrobial potency of Cu-free compound against Bacillus subtilis: 430 mcg potency/mg

## Cc1c(N)nc(C(CC(N)=O)NCC(N)C(=O)NC2CCN(Cc3ccccc3)CC2)nc1C(=O)NC(C(=O)NC(C)C(O)C(C)C(=O)NC(C(=O)NCCc1nc(-c2nc(C(=O)NCCCNC(C)c3ccccc3)cs2)cs1)C(C)O)C(OC1OC(CO)C(O)C(O)C1OC1OC(CO)C(O)C(OC(N)=O)C1O)c1cnc[nH]1 [Compound 35, 3-((S)-1'-phenylethylamino)propylamino-(amido)N--[N--benzyl-piperazin-4-yl]-BLM]
[1]
  Antimicrobial potency of Cu-free compound against Mycobacterium smegmatis ATCC 607: 18537 mcg potency/mg
Bacillus subtilis
  Antimicrobial potency of Cu-free compound against Bacillus subtilis: 2159 mcg potency/mg

## CCCCCCCCNC(=O)C(N)CNC(CC(N)=O)c1nc(N)c(C)c(C(=O)NC(C(=O)NC(C)C(O)C(C)C(=O)NC(C(=O)NCCc2nc(-c3nc(C(=O)NCCCN(C)CCCNCc4ccc(Cl)cc4)cs3)cs2)C(C)O)C(OC2OC(CO)C(O)C(O)C2OC2OC(CO)C(O)C(OC(N)=O)C2O)c2cnc[nH]2)n1 (centres unmarked) [Compound 40, 3-{N--methyl-N--[3-(p-chlorobenzyl)aminopropyl]amino}-propylamino-(amido)N--[octyl]-BLM]
[1]
  Antimicrobial potency of Cu-free compound against Mycobacterium smegmatis ATCC 607: 38200 mcg potency/mg
Bacillus subtilis
  Antimicrobial potency of Cu-free compound against Bacillus subtilis: 1808 mcg potency/mg

## Cc1c(N)nc(C(CC(N)=O)NCC(N)C(=O)NC(Cc2ccccc2)c2ccccc2)nc1C(=O)NC(C(=O)NC(C)C(O)C(C)C(=O)NC(C(=O)NCCc1nc(-c2nc(C(=O)NCCCN(C)CCCNCc3ccc(Cl)cc3)cs2)cs1)C(C)O)C(OC1OC(CO)C(O)C(O)C1OC1OC(CO)C(O)C(OC(N)=O)C1O)c1cnc[nH]1 (centres unmarked) [Compound 41, 3-{N--methyl-N--[3-(p-chlorobenzyl)aminopropyl]amino}propyl-amino-(amido)N--[1,2-diphenylethyl]-BLM]
[1]
  Antimicrobial potency of Cu-free compound against Mycobacterium smegmatis ATCC 607: 23342 mcg potency/mg
Bacillus subtilis
  Antimicrobial potency of Cu-free compound against Bacillus subtilis: 521 mcg potency/mg

## Cc1c(N)nc(C(CC(N)=O)NCC(N)C(=O)NC(C)CCCC(C)C)nc1C(=O)NC(C(=O)NC(C)C(O)C(C)C(=O)NC(C(=O)NCCc1nc(-c2nc(C(=O)NCCCN(C)CCCNCc3ccc(Cl)cc3)cs2)cs1)C(C)O)C(OC1OC(CO)C(O)C(O)C1OC1OC(CO)C(O)C(OC(N)=O)C1O)c1cnc[nH]1 (centres unmarked) [Compound 42, 3-{N--methyl-N--[3-(p-chlorobenzyl)aminopropyl]amino}propyl-amino-(amido)N--[1,5-dimethylhexyl]-BLM]
[1]
  Antimicrobial potency of Cu-free compound against Mycobacterium smegmatis ATCC 607: 31834 mcg potency/mg
Bacillus subtilis
  Antimicrobial potency of Cu-free compound against Bacillus subtilis: 933 mcg potency/mg

## CCCCCCCCNC(=O)C(N)CNC(CC(N)=O)c1nc(N)c(C)c(C(=O)NC(C(=O)NC(C)C(O)C(C)C(=O)NC(C(=O)NCCc2nc(-c3nc(C(=O)NCCCN(C)CCCNCCc4ccc(Cl)cc4)cs3)cs2)C(C)O)C(OC2OC(CO)C(O)C(O)C2OC2OC(CO)C(O)C(OC(N)=O)C2O)c2cnc[nH]2)n1 (centres unmarked) [Compound 44]
[1]
  Antimicrobial potency of Cu-free compound against Mycobacterium smegmatis ATCC 607: 38750 mcg potency/mg
Bacillus subtilis
  Antimicrobial potency of Cu-free compound against Bacillus subtilis: 1898 mcg potency/mg
